Results as given in patent US10278957B2, “Opioid agonist peptides and uses thereof” (Protagonist Therapeutics, Inc., priority 2017, dated 2019).
Square brackets hold non-standard residues; d marks the D form. Peptide text beside a SMILES is read from it. Phe(2,6-Me2,4-CONH2) = Cc1cc(C(N)=O)cc(C)c1C[C@H](N)C(=O)O; Bip = N[C@@H](Cc1ccc(-c2ccccc2)cc1)C(=O)O; Phe(4-CN) = N#Cc1ccc(C[C@H](N)C(=O)O)cc1; Phe(4-F) = N[C@@H](Cc1ccc(F)cc1)C(=O)O; Dmt = Cc1cc(O)cc(C)c1C[C@H](N)C(=O)O; hPhe = N[C@@H](CCc1ccccc1)C(=O)O; dTic = O=C(O)[C@H]1Cc2ccccc2CN1; β3hF = N[C@H](CC(=O)O)Cc1ccccc1; Nle = CCCC[C@H](N)C(=O)O; dNMeA = CN[C@H](C)C(=O)O; Sar = CNCC(=O)O

Experiments:
[1] = biological target: T1, μ-opioid receptor (MOR) (Homo sapiens, UniProt P35372); test: MOR agonist cAMP assay (HitHunter cAMP, forskolin-stimulated); assay type: cell-based
T1 construct: host or cells: cAMP Hunter CHO-K1 OPRM1 Gαi cell line
Protocol: (§1) The HitHunter® cAMP chemiluminescent assay kit (DiscoveRx, Cat# 90-0075 SM25) was used to detect cAMP production in cAMP Hunter™ Gαi cell lines over expressing either Human-ORPM1 (Discoverx, Catalog# 95-0107C2) or Human-ORPD1 (DiscoveRx, Catalog# 95-0108C2). Opioid agonist binding to the Gαi receptors inhibits the intracellular cAMP accumulation induced by forskolin, which activates adenylate cyclase and increases intracellular levels of cAMP.
(§2) Cells were cultured in media consisting of Ham's F-12 Nutrient Mix (Life Technologies, Catalog#31765035), 10% FBS (Life Technologies, Catalog# 16140-071), 4 mM GlutaMAX (Life Technologies, Catalog#35050-061), […] (Life Technologies), 100 ug/ml of Penn-Strep (Life Technologies) and 0.5 mg/ml Geneticin (Life Technologies, Catalog# 10131-027). The cultures were maintained at 37° C. under 5% CO2.
(§3) In preparation for cAMP assay, the cells were seeded at a density of 300,000 cells/ml in 100 ul of media/well in 96-well microplate. Wells that were designated for cAMP standards were left empty.
(§4) Opioid agonist serial dilutions were prepared in separate dilution plate (11-point series of 3× (3-fold) dilution) in Cell Assay buffer, including 3× forskolin for Gαi target. For Hunter CHO-K1 OPRM1 or CHO-K1 OPRD1 Gαi Cell Lines, the final forskolin concentration was 20 uM.
(§5) 15 ul of each 3× opioid agonist serial dilution was added in the presence of forskolin in duplicate to the designated wells. The final concentration of each dilution was at 3× of the final screening concentration. The assay plate was incubated for 30 min, at 37° C. under 5% CO2.
(§6) Cellular cAMP concentrations were measured using the HitHunter cAMP Assay kit following the manufacturer's protocol. HitHunter cAMP assay is a gain-of-signal competitive immunoassay based on Enzyme Fragment Complementation (EFC) technology. The kit uses β-galactosidase (β-gal) enzyme split into Enzyme Donor (ED) and Enzyme Acceptor (EA). The cellular cAMP and ED-labelled cAMP compete for anti-cAMP antibody. […] When cellular cAMP level is high, it competes for the anti-cAMP antibody, thereby releasing ED-cAMP to complement with EA to produce a luminescent signal. The amount of signal is directly proportional to the amount of cAMP in cells and can be quantified using cAMP standards. The assay plates were read using a PerkinElmer Envision instrument to detect the chemiluminescence signal in each well (luminescence reader at 0.1 to 1 second/well). Data analysis was performed using Graphpad Prism 7.EC50 was calculated by nonlinear regression, using the four-parameter hill equation.

[2] = biological target: T2, δ-opioid receptor (DOR) (Homo sapiens, UniProt P41143); test: DOR agonist cAMP assay (HitHunter cAMP, forskolin-stimulated); assay type: cell-based
T2 construct: host or cells: cAMP Hunter CHO-K1 OPRD1 Gαi cell line
Protocol: as §1, §2, §3, §4, §5, §6

T1 sequence (P35372 whole entry): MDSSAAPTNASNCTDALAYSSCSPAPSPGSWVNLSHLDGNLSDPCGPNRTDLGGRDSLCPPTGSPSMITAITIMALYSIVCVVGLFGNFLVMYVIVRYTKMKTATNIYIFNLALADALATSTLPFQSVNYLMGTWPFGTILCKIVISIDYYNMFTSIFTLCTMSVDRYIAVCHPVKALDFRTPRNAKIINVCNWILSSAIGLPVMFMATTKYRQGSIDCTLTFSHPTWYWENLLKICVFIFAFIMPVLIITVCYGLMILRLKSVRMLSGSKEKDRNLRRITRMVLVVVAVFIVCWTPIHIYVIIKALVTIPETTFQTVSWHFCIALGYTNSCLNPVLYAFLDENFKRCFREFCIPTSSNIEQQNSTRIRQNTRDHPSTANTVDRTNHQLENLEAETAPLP
T2 sequence (P41143 whole entry): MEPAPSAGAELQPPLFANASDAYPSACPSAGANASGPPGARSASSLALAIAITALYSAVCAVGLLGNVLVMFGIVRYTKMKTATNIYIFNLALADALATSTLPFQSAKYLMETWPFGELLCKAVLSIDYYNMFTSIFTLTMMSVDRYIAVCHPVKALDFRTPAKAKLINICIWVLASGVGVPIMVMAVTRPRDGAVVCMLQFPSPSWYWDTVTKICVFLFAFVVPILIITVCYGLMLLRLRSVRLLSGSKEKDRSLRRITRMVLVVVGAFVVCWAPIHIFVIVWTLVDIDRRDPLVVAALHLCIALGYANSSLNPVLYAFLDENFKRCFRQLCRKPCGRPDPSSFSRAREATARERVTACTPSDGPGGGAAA

| SMILES | EC50 [1] [µM] | EC50 [2] [µM] |
| --- | --- | --- |
| Cc1cc(O)cc(C)c1C[C@H](N)C(=O)N[C@H](CCCNC(=N)N)C(=O)N[C@@H](Cc1ccc(-c2ccccc2)cc1)C(=O)N[C@@H](CCCCN)C(N)=O [compound 3] (H-[Dmt][dR][Bip]K-NH2) | 0.05 to 0.2 | > 0.2 |
| Cc1cc(O)cc(C)c1C[C@H](N)C(=O)N[C@H](CCCNC(=N)N)C(=O)N[C@@H](Cc1c[nH]cn1)C(=O)N[C@@H](CCCCN)C(N)=O [compound 4] (H-[Dmt][dR]HK-NH2) | 0.01 to 0.05 | > 0.2 |
| Cc1cc(O)cc(C)c1C[C@H](N)C(=O)N[C@H](CCCNC(=N)N)C(=O)N[C@@H](Cc1ccccc1)C(=O)N(C)[C@@H](CCCCN)C(N)=O [compound 5] | < 0.001 | > 0.2 |
| Cc1cc(O)cc(C)c1C[C@H](N)C(=O)N[C@H](CCCNC(=N)N)C(=O)N[C@@H](Cc1ccccc1)C(=O)N(C)CC(N)=O [compound 9] (H-[Dmt][dR]F[Sar]-NH2) | < 0.001 | 0.001 to 0.01 |
| Cc1cc(O)cc(C)c1C[C@H](N)C(=O)N(C)[C@H](C)C(=O)N[C@@H](Cc1ccccc1)C(=O)N(C)CC(N)=O [compound 10] (H-[Dmt][dNMeA]F[Sar]-NH2) | < 0.001 | 0.001 to 0.01 |
| Cc1cc(O)cc(C)c1C[C@H](N)C(=O)N[C@H](CCCNC(=N)N)C(=O)N[C@@H](CCc1ccccc1)C(=O)N(C)CCC(=O)O [compound 12] | < 0.001 | < 0.001 |
| Cc1cc(O)cc(C)c1C[C@H](N)C(=O)N[C@H](CCCNC(=N)N)C(=O)N[C@@H](Cc1ccc(F)cc1)C(=O)N(C)CC(N)=O [compound 19] (H-[Dmt][dR][Phe(4-F)][Sar]-NH2) | < 0.001 | 0.001 to 0.01 |
| Cc1cc(O)cc(C)c1C[C@H](N)C(=O)N[C@H](CCCNC(=N)N)C(=O)N[C@@H](Cc1ccc(C#N)cc1)C(=O)N(C)CC(N)=O [compound 20] (H-[Dmt][dR][Phe(4-CN)][Sar]-NH2) | 0.001 to 0.01 | < 0.001 |
| Cc1cc(O)cc(C)c1C[C@H](N)C(=O)N1Cc2ccccc2C[C@@H]1C(=O)N[C@@H](Cc1ccccc1)C(=O)N(C)CC(N)=O [compound 44] (H-[Dmt][dTic]F[Sar]-NH2) | < 0.001 | 0.001 to 0.01 |
| Cc1cc(O)cc(C)c1C[C@H](N)C(=O)N1Cc2ccccc2C[C@@H]1C(=O)NCC(=O)N[C@@H](Cc1ccccc1)C(=O)N(C)CC(N)=O [compound 45] (H-[Dmt][dTic]GF[Sar]-NH2) | < 0.001 | < 0.001 |
| Cc1cc(O)cc(C)c1C[C@H](N)C(=O)N[C@H](C)C(=O)N[C@@H](CCc1ccccc1)C(=O)N(C)CC(N)=O [compound 46] (H-[Dmt][dA][hPhe][Sar]-NH2) | < 0.001 | < 0.001 |
| CCCC[C@H](NC(=O)[C@H](CCc1ccccc1)NC(=O)[C@@H](C)NC(=O)[C@@H](N)Cc1c(C)cc(O)cc1C)C(N)=O [compound 48] (H-[Dmt][dA][hPhe][Nle]-NH2) | < 0.001 | < 0.001 |
| CCCC[C@H](NC(=O)[C@H](CCc1ccccc1)NC(=O)CNC(=O)[C@@H](C)NC(=O)[C@@H](N)Cc1c(C)cc(O)cc1C)C(N)=O [compound 49] | < 0.001 |  |
| CC(=O)Nc1ccc(C[C@H](N)C(=O)N[C@H](C)C(=O)NCC(=O)N[C@H](CC(=O)N(C)CC(N)=O)Cc2ccccc2)cc1 [compound 59] | 0.01 to 0.05 | 0.05 to 0.2 |
| C[C@@H](NC(=O)[C@@H](N)Cc1ccc(C(N)=O)cc1)C(=O)NCC(=O)N[C@H](CC(=O)N(C)CC(N)=O)Cc1ccccc1 [compound 60] | 0.001 to 0.01 | 0.001 to 0.01 |
| C[C@@H](NC(=O)[C@@H](N)Cc1c[nH]c2ccc(O)cc12)C(=O)NCC(=O)N[C@H](CC(=O)N(C)CC(N)=O)Cc1ccccc1 [compound 63] | 0.05 to 0.2 | 0.05 to 0.2 |
| Cc1cc(O)cc(C)c1C[C@H](N)C(=O)N[C@H](C)C(=O)N[C@@H](CC(C)C)C(=O)N[C@H](CC(=O)N(C)CC(N)=O)Cc1ccccc1 [compound 67] (H-[Dmt][dA]L[β3hF][Sar]-NH2) | < 0.001 | 0.01 to 0.05 |
| CC[C@H](C)[C@H](NC(=O)[C@@H](C)NC(=O)[C@@H](N)Cc1c(C)cc(O)cc1C)C(=O)N[C@H](CC(=O)N(C)CC(N)=O)Cc1ccccc1 [compound 68] (H-[Dmt][dA]I[β3hF][Sar]-NH2) | < 0.001 | 0.01 to 0.05 |

| SMILES | EC50 [1] [µM] | EC50 [2] [µM] |
| --- | --- | --- |
| Cc1cc(C(N)=O)cc(C)c1C[C@H](N)C(=O)NCC(=O)NCC(=O)N[C@H](CC(=O)N(C)CC(N)=O)Cc1ccccc1 [compound 74] (H-[Phe(2,6-Me2,4-CONH2)]GG[β3hF][Sar]-NH2) | < 0.001 | < 0.001 |
| Cc1cc(C(N)=O)cc(C)c1C[C@H](N)C(=O)NC(C)(C)C(=O)NCC(=O)N[C@H](CC(=O)N(C)CC(N)=O)Cc1ccccc1 [compound 75] | < 0.001 | 0.01 to 0.05 |
| Cc1cc(C(N)=O)cc(C)c1C[C@H](N)C(=O)N[C@@H](C)C(=O)NCC(=O)N[C@H](CC(=O)N(C)CC(=O)O)Cc1ccccc1 [compound 80] | 0.001 to 0.01 | 0.05 to 0.2 |
| C[C@@H](NC(=O)[C@@H](N)Cc1ccc(C(=O)O)cc1)C(=O)NCC(=O)N[C@H](CC(=O)N(C)CC(N)=O)Cc1ccccc1 [compound 89] | 0.05 to 0.2 | 0.05 to 0.2 |
| Cc1cc(O)cc(C)c1C[C@H](N)C(=O)NC(C)(C)C(=O)NCC(=O)N[C@H](CC(=O)N(C)CC(N)=O)Cc1ccccc1 [compound 90] | < 0.001 | 0.001 to 0.01 |
| Cc1cc(C(N)=O)cc(C)c1C[C@H](N)C(=O)N[C@H](C)C(=O)NCC(=O)N[C@H](CC(=O)NCC(N)=O)Cc1ccccc1 [compound 94] | < 0.001 | 0.001 to 0.01 |
| CC[C@H](C)[C@@H](C(=O)O)N(C)C(=O)C[C@H](Cc1ccccc1)NC(=O)CNC(=O)[C@@H](C)NC(=O)[C@@H](N)Cc1c(C)cc(C(N)=O)cc1C [compound 95] | < 0.001 | 0.001 to 0.01 |
| CCC[C@@H](C(=O)O)N(C)C(=O)C[C@H](Cc1ccccc1)NC(=O)CNC(=O)[C@@H](C)NC(=O)[C@@H](N)Cc1c(C)cc(C(N)=O)cc1C [compound 97] | < 0.001 | < 0.001 |
| Cc1cc(C(N)=O)cc(C)c1C[C@H](N)C(=O)N[C@H](C)C(=O)NCC(=O)N[C@H](CC(=O)N(C)[C@@H](CC1CCCCC1)C(=O)O)Cc1ccccc1 [compound 98] | 0.001 to 0.01 | 0.001 to 0.01 |
| Cc1cc(C(N)=O)cc(C)c1C[C@H](N)C(=O)N[C@H](C)C(=O)NCC(=O)N[C@H](CC(=O)N(C)[C@@H](Cc1ccccc1)C(=O)O)Cc1ccccc1 [compound 100] | 0.001 to 0.01 | 0.001 to 0.01 |
| Cc1cc(C(N)=O)cc(C)c1C[C@H](N)C(=O)N1Cc2ccccc2C[C@H]1C(=O)NCC(=O)N[C@H](CC(=O)N(C)CC(N)=O)Cc1ccccc1 [compound 103] | 0.05 to 0.2 | 0.05 to 0.2 |
| Cc1cc(O)cc(C)c1C[C@H](N)C(=O)N1Cc2ccccc2C[C@H]1C(=O)NCC(=O)N[C@H](CC(=O)N(C)CC(N)=O)Cc1ccccc1 [compound 104] | 0.05 to 0.2 | 0.05 to 0.2 |
| Cc1cc(C(N)=O)cc(C)c1C[C@H](N)C(=O)N[C@H](C)C(=O)NCC(=O)N[C@H](CC(=O)N(C)[C@@H](Cc1c[nH]c2ccccc12)C(=O)O)Cc1ccccc1 [compound 106] | 0.001 to 0.01 | 0.001 to 0.01 |
| Cc1cc(C(N)=O)cc(C)c1C[C@H](N)C(=O)N[C@H](C)C(=O)NCC(=O)N1Cc2ccccc2C[C@H]1C(=O)N(C)CC(N)=O [compound 108] | 0.001 to 0.01 | 0.01 to 0.05 |
| CC[C@H](C)[C@@H](C(=O)O)N(C)C(=O)C[C@H](Cc1ccccc1)NC(=O)CNC(=O)[C@@H](C)NC(=O)[C@@H](N)Cc1c(C)cc(O)cc1C [compound 113] | < 0.001 | < 0.001 |
| Cc1cc(O)cc(C)c1C[C@H](N)C(=O)N[C@H](C)C(=O)NCC(=O)N[C@H](CC(=O)N[C@@H](Cc1ccc2ccccc2c1)C(N)=O)Cc1ccccc1 [compound 114] | 0.001 to 0.01 | 0.001 to 0.01 |
| CCCC[C@@H](C(=O)O)N(C)C(=O)[C@@H](Cc1ccccc1)N(C)C(=O)CNC(=O)[C@@H](C)NC(=O)[C@@H](N)Cc1c(C)cc(O)cc1C [compound 154] | < 0.001 |  |
| CCCC[C@@H](C(=O)O)N(C)C(=O)C[C@H](Cc1ccccc1C)NC(=O)CNC(=O)[C@@H](C)NC(=O)[C@@H](N)Cc1c(C)cc(C(N)=O)cc1C [compound 163] |  | 0.001 to 0.01 |
